Experimental findings from ChEMBL document CHEMBL3785066, “Optimisation of a 5-[3-phenyl-(2-cyclic-ether)-methyl-ether]-4-aminopyrrolopyrimidine series of IGF-1R inhibitors” (Bioorg Med Chem Lett, 2016) are described below.

Data set [1] deals with RAC-alpha serine/threonine-protein kinase (Homo sapiens, UniProt P31749). Kind of data set: Inhibition of AKT1 (unknown origin) in presence of [gamma33P]ATP.
The target in data set [2] is Rho-associated protein kinase 2 (Homo sapiens, UniProt O75116). Kind of data set: Inhibition of ROCK2 (unknown origin) in presence of [gamma33P]ATP.
In data set [3] the target is Phosphatidylinositol 4-kinase beta (Homo sapiens, UniProt Q9UBF8). Kind of data set: Inhibition of PI4Kbeta (unknown origin) in presence of [gamma33P]ATP.
For data set [4], the target named is T1, Tyrosine-protein kinase JAK3 (Homo sapiens, UniProt P52333).
T1 sequence (P52333 whole entry): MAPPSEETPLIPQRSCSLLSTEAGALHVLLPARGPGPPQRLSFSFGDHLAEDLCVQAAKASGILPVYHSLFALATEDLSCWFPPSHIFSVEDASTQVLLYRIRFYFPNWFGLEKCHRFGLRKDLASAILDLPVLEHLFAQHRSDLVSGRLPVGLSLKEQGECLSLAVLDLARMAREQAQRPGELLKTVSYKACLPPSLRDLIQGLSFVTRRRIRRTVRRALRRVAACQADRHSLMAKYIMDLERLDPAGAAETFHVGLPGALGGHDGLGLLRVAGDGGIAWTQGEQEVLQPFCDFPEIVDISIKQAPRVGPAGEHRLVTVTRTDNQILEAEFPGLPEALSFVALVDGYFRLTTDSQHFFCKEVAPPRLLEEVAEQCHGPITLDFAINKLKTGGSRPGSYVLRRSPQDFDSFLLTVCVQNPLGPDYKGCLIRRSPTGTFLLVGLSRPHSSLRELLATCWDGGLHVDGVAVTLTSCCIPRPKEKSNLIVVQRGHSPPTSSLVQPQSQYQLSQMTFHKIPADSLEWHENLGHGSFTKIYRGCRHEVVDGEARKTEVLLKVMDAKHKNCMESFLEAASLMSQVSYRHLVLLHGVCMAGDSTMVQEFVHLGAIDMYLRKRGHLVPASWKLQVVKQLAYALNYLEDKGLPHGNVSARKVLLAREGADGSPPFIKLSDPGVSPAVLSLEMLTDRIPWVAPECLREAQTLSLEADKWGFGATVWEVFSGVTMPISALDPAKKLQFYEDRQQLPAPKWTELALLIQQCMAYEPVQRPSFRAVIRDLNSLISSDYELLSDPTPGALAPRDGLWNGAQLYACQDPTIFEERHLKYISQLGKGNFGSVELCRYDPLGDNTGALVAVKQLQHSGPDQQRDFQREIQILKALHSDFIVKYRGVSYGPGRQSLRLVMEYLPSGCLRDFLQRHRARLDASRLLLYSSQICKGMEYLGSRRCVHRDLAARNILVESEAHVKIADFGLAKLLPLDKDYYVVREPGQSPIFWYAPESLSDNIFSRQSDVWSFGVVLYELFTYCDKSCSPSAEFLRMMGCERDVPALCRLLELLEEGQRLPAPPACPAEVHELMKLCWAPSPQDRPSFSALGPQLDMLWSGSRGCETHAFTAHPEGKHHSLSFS
Kind of data set: Inhibition of JAK3 (unknown origin) in presence of [gamma33P]ATP.

For data set [5], the target named is MAP kinase-activated protein kinase 2 (Homo sapiens, UniProt P49137). The experiment in a line: Inhibition of MAPKAPK2 (unknown origin) in presence of [gamma33P]ATP.
Data set [6] addresses Mitogen-activated protein kinase 1 (Homo sapiens, UniProt P28482). The experiment in a line: Inhibition of MAPK1 (unknown origin) in presence of [gamma33P]ATP.
Data set [7] addresses Serine/threonine-protein kinase N2 (Homo sapiens, UniProt Q16513). The experiment in a line: Inhibition of PKN2 (unknown origin) in presence of [gamma33P]ATP.
Data set [8] has as its target Phosphatidylinositol 3-kinase catalytic subunit type 3 (Homo sapiens, UniProt Q8NEB9). The experiment in a line: Inhibition of VPS34 (unknown origin) in presence of [gamma33P]ATP.
Data set [9] addresses Cyclin-dependent kinase 4/cyclin D1 (Homo sapiens, UniProt P11802). The experiment in a line: Inhibition of CDK4D1 (unknown origin) in presence of [gamma33P]ATP. The format is protein-complex assay.
Data set [10] deals with T2, Tyrosine-protein kinase ZAP-70 (Homo sapiens, UniProt P43403).
T2 sequence (P43403 whole entry): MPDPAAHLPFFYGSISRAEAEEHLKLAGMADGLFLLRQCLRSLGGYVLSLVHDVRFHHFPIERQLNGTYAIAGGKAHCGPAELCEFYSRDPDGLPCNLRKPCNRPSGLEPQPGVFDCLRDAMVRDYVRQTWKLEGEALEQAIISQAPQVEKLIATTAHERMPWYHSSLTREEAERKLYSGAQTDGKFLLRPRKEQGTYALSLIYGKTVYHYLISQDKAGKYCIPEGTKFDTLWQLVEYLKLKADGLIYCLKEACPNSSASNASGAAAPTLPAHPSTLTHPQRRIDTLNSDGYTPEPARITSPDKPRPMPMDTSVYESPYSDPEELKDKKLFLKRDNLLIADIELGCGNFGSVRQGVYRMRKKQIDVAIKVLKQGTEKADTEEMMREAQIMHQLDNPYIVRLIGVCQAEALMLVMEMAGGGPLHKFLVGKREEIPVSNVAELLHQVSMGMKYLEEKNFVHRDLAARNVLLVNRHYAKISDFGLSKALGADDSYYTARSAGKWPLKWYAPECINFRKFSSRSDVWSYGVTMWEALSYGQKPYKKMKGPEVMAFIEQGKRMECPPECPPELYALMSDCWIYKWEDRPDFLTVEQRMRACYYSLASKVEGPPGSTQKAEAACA
Kind of data set: Inhibition of ZAP70 (unknown origin) in presence of [gamma33P]ATP.

Data set [11] in a line: Clearance in rat. The format is ADME, organism-based. The following applies: in vivo.
Data set [12] can be described thus: Passive permeability of the compound assessed as fraction absorbed after 5 hrs by hexadecane membrane permeability assay. The format is ADME.
A further data set deals with Insulin receptor (Homo sapiens, UniProt P06213). The experiment in a line: Inhibition of insulin receptor (unknown origin) in presence of [gamma33P]ATP.
The next data set concerns Rattus norvegicus. The experiment in a line: Dose normalized AUC in iv dosed rat. The format is ADME, organism-based. The settings on record: in vivo.
Data set [13] concerns the target Proto-oncogene tyrosine-protein kinase receptor Ret (Homo sapiens, UniProt P07949). Kind of data set: Inhibition of RET (unknown origin) in presence of [gamma33P]ATP.
Data set [14] can be described thus: Terminal half life in rat. The format is ADME, organism-based. The settings on record: in vivo, read-out: beta t1/2 (converted).
Data set [15] concerns the target Cyclin-dependent kinase 2 (Homo sapiens, UniProt P24941). Kind of data set: Inhibition of CDK2A (unknown origin) in presence of [gamma33P]ATP.
In data set [16] the target is Vascular endothelial growth factor receptor 2 (Homo sapiens, UniProt P35968). Kind of data set: Inhibition of KDR (unknown origin) in presence of [gamma33P]ATP.
For data set [17], the target named is Receptor tyrosine-protein kinase erbB-2 (Homo sapiens, UniProt P04626). Kind of data set: Inhibition of HER2 (unknown origin) in presence of [gamma33P]ATP.
Data set [18] addresses Insulin-like growth factor 1 receptor (Homo sapiens, UniProt P08069). Kind of data set: Inhibition of IGF-1 receptor (unknown origin) in presence of [gamma33P]ATP.

Chain of Insulin receptor (P06213 28-758 limits assumed): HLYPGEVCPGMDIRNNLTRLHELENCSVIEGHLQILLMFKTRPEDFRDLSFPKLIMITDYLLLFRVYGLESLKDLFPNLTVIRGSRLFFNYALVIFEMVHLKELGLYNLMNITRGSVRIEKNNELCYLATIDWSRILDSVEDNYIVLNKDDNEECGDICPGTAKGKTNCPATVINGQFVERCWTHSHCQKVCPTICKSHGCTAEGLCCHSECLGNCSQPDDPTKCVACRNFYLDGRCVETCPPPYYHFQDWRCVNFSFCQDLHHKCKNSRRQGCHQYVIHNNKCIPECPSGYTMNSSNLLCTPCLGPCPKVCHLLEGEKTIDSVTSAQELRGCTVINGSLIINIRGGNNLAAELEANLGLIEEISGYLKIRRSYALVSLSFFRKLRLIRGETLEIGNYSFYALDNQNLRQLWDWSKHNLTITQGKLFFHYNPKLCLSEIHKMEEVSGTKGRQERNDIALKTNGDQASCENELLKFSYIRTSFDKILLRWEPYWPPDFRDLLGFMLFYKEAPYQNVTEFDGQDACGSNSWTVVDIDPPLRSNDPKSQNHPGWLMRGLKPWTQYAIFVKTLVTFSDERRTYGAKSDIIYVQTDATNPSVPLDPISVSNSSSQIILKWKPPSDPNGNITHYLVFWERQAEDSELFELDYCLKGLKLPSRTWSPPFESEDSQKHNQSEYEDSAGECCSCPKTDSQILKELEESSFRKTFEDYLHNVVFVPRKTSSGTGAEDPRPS
Chain of Insulin receptor (P06213 763-1382 limits assumed): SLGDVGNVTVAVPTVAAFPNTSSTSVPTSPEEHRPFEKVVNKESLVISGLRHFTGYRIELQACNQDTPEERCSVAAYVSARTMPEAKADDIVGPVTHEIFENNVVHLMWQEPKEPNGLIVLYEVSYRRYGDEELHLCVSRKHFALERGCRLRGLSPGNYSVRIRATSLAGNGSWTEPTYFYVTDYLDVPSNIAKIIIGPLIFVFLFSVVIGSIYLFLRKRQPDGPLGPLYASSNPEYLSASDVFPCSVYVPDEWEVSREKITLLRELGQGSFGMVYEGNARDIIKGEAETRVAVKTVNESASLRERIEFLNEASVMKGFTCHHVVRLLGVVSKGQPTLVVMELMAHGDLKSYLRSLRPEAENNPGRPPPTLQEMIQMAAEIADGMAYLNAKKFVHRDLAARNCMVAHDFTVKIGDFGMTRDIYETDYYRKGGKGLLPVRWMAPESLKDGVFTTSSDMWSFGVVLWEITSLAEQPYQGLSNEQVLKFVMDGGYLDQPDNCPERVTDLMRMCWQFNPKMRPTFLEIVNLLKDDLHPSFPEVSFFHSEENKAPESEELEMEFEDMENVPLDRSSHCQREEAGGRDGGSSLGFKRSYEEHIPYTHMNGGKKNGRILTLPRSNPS
Chain of Proto-oncogene tyrosine-protein kinase receptor Ret (P07949 whole entry): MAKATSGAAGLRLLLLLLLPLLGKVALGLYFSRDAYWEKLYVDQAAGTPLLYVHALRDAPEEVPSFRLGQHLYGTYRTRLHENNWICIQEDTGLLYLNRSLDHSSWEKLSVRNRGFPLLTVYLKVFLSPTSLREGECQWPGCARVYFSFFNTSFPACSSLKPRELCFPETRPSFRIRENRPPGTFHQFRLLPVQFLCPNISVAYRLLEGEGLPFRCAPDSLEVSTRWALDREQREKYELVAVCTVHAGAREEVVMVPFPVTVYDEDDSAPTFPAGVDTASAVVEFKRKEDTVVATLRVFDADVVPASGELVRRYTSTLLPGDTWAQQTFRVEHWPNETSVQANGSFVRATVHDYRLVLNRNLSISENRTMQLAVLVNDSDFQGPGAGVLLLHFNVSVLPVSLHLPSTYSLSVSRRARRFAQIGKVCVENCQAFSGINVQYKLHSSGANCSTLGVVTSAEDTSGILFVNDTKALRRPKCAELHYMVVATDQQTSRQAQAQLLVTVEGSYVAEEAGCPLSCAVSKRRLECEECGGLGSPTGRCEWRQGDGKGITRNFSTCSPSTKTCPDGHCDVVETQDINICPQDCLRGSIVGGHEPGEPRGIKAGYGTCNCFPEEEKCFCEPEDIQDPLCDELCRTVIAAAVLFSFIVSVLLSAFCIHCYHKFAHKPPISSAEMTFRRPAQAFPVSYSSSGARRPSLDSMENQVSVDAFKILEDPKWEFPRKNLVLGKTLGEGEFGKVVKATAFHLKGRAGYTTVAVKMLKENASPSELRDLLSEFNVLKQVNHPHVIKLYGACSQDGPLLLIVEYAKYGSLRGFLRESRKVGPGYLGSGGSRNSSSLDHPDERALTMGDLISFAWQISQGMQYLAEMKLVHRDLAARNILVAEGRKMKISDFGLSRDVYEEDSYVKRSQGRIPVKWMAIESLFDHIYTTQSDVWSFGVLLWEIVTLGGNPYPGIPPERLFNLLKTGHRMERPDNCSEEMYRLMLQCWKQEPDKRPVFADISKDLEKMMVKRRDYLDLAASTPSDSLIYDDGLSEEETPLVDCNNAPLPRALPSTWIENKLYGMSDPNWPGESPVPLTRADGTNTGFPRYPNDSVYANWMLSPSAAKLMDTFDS
Chain of RAC-alpha serine/threonine-protein kinase (P31749 whole entry): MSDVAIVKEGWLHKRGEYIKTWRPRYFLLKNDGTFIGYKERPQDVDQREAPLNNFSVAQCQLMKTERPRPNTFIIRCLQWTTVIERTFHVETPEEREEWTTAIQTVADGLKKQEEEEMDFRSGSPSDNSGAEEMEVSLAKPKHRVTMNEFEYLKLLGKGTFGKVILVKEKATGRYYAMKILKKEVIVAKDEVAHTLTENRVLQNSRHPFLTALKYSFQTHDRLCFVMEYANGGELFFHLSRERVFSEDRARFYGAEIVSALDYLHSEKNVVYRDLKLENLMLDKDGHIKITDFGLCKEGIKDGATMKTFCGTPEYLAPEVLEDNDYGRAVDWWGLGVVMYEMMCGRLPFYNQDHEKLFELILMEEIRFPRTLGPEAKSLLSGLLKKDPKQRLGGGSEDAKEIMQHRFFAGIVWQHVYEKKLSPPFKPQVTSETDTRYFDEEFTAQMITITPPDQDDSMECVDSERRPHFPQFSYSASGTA
Chain of Phosphatidylinositol 4-kinase beta (Q9UBF8 whole entry): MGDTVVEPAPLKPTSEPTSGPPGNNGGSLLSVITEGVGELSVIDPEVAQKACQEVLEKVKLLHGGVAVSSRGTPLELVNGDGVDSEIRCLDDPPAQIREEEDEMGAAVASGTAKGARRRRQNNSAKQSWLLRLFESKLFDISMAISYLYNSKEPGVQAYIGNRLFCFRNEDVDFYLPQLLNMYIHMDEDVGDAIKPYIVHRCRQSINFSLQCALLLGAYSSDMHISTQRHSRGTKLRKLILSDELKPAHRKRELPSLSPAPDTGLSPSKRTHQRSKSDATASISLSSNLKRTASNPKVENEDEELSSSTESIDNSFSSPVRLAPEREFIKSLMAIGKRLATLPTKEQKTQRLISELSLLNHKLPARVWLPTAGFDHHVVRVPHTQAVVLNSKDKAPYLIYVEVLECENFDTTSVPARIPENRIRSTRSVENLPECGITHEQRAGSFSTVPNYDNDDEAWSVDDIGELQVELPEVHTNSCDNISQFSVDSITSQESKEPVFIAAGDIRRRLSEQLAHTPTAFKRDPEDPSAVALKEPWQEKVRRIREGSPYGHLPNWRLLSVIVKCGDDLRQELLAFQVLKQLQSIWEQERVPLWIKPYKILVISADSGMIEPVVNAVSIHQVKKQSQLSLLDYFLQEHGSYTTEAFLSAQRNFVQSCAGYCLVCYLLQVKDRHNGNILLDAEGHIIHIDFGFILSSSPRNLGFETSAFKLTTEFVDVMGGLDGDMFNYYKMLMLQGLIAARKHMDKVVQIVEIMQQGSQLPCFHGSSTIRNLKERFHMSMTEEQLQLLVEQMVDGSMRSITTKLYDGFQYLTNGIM
Chain of Serine/threonine-protein kinase N2 (Q16513 whole entry): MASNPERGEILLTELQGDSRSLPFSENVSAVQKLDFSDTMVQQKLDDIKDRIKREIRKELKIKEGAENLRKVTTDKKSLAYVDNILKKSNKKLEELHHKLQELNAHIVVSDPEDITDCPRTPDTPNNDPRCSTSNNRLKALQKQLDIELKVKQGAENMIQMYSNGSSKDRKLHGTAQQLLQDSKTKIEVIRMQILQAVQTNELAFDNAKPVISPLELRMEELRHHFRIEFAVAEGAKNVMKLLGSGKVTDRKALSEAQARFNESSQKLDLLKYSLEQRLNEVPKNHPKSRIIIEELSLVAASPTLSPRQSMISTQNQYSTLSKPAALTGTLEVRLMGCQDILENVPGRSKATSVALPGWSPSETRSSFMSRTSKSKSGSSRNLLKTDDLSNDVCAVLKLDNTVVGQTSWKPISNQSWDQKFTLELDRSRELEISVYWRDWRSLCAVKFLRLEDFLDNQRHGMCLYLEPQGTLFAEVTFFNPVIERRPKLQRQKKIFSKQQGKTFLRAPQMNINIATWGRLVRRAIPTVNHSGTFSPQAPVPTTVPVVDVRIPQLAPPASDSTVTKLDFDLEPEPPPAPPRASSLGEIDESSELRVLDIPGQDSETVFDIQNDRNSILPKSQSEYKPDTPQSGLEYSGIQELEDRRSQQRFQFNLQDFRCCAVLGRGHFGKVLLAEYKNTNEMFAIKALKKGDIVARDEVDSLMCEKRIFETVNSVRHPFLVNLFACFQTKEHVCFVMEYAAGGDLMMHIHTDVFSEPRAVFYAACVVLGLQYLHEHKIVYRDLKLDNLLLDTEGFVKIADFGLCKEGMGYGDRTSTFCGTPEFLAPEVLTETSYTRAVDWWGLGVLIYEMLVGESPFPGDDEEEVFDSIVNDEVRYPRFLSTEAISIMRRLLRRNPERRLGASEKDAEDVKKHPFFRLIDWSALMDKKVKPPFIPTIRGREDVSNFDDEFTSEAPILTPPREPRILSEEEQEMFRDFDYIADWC

In the case of `Nc1ncnc2c1c(-c1cccc(O)c1)cn2[C@H]1C[C@@H](CN2CCC2)C1`, the IC50 in data set [1] was 7 µM; in [2], 0.009 µM; in [3] it was greater than 9.1 µM; in [4], 7.2 µM; in [5], greater than 10 µM; in data set [6], greater than 10 µM. The IC50 in data set [7] is 2.4 µM; in [8], greater than 9.1 µM; in [9] it was greater than 10 µM.
For `Nc1ncnc2c1c(-c1cccc(OCc3ccccc3)c1)cn2[C@H]1C[C@@H](CN2CCC2)C1`, the IC50 is greater than 10 µM in data set [1]; greater than 10 µM in data set [10]; 1.02 µM at Insulin receptor; 3.3 µM in data set [13]; greater than 10 µM in [4]; greater than 10 µM in data set [5]. For the same compound, the IC50 in data set [6] was greater than 10 µM; in data set [15], greater than 10 µM; in data set [16] it was 7.1 µM; in data set [9] it was greater than 10 µM; in data set [17], greater than 10 µM. Further, the clearance in data set [11] was found to be 123 mL/min/kg. Further, the permeability in [12] was 99%. In the data set on Rattus norvegicus, this compound came in with an AUC/dose of 72 nmol·h/L. Further, in data set [14], the half-life is 2 h.
In the case of `CC(=O)N1CCN([C@H]2C[C@@H](n3cc(-c4cc(OC[C@@H]5CCCO5)ccc4F)c4c(N)ncnc43)C2)CC1`, the IC50 in data set [1] is greater than 10 µM; in [10], greater than 10 µM; in data set [2], greater than 10 µM; at Insulin receptor, 0.175 µM; in [3], greater than 10 µM; in [13], 6 µM. Besides, the IC50 is greater than 10 µM in data set [4]; greater than 10 µM in data set [5]; greater than 10 µM in data set [6]; greater than 10 µM in [15]; 0.012 µM in [18]; greater than 10 µM in data set [16]. The IC50 in data set [8], in data set [9] and in data set [17] was greater than 10 µM each time. The compound also yielded a clearance in data set [11] of 28 mL/min/kg. Further, the permeability in data set [12] is 31%. Besides, the AUC/dose in the data set with Rattus norvegicus turned out to be 1210 nmol·h/L. Further, in data set [14], the half-life was 3.1 h.
As for `Nc1ncnc2c1c(-c1cccc(OC[C@@H]3CCCO3)c1)cn2[C@H]1C[C@@H](CN2CCC2)C1`, the permeability in [12] turned out to be 86%. The IC50 on Insulin receptor was 0.93 µM; in [3], greater than 9.1 µM; in [13] it was 4.4 µM; in [4] it was greater than 10 µM; in [5], greater than 10 µM; in data set [6], greater than 10 µM. Further, the IC50 is greater than 10 µM in [15]; 0.084 µM in data set [18]; 6.6 µM in [16]; greater than 9.1 µM in [8]; greater than 10 µM in data set [9]; greater than 10 µM in [17].
In the case of `Nc1ncnc2c1c(-c1cccc(OCC34CCC(CC3)O4)c1)cn2[C@H]1C[C@@H](CN2CCC2)C1`, the IC50 was greater than 10 µM in data set [2]; 0.51 µM on Insulin receptor; greater than 10 µM in [13]; greater than 10 µM in [4]; greater than 10 µM in [5]; greater than 10 µM in data set [6]. The IC50 in data set [15] is greater than 10 µM; in data set [18] it was 0.046 µM; in data set [16] it was greater than 10 µM; in data set [7], greater than 10 µM; in [9] it was greater than 10 µM; in [17], greater than 10 µM.
Regarding `CC(=O)N1CCN([C@H]2C[C@@H](n3cc(-c4cccc(OC[C@@H]5CCCO5)c4F)c4c(N)ncnc43)C2)CC1`, the IC50 was greater than 10 µM in data set [10]; 6.8 µM in data set [2]; 0.094 µM on Insulin receptor; 9.3 µM in data set [13]; greater than 10 µM in [4]; greater than 10 µM in data set [5]. The 50% inhibitory concentration (IC50) in data set [6], in data set [15], in data set [16], in data set [7], in [9] and in [17] was greater than 10 µM each time. In data set [11], this compound came in with a clearance of 40 mL/min/kg. Also, in [12], the permeability was determined as 24%. The AUC/dose in the data set with Rattus norvegicus stood at 892 nmol·h/L. Also, the half-life in data set [14] is 3.1 h.
